Test [1] in a line: Scavenging assay of 4-hydroxy-2-nonenal. In kind it is biochemical. To be noted: 2 mM peptide in 10 mM PBS mixed with equal volume of 100 μM aldehyde in acetonitrile, 37° C., 24 h, HPLC of remaining aldehyde. The method, then: Scavenging assay of 4-hydroxy-2-nonenal.
A solution was prepared from peptides in a 10 mM PBS buffer at a concentration of 2 mM, as well as a solution of the aldehyde in acetonitrile at a concentration of 100 μM. Equal volumes of peptide solutions and aldehyde were mixed and were left to react at 37° C. for 24 h. The scavenging efficiency of the RCS was measured by HPLC analysis of the remaining aldehyde content in the reaction mixture.

A short description of test [2]: Scavenging assay of 2-nonenal. In kind it is biochemical. To be noted: 2 mM peptide in 10 mM PBS mixed with equal volume of 100 μM aldehyde in acetonitrile, 37° C., 24 h, HPLC of remaining aldehyde. Here is the method: Scavenging assay of 2-nonenal.
A solution was prepared from peptides in a 10 mM PBS buffer at a concentration of 2 mM, as well as a solution of the aldehyde in acetonitrile at a concentration of 100 μM. Equal volumes of peptide solutions and aldehyde were mixed and left to react at 37° C. for 24 h. The scavenging efficiency of the RCS was measured by HPLC analysis of the remaining aldehyde content in the reaction mixture.

The subject of test [3] is Primary cultures of human fibroblasts. Description: Repair capacity of DNA degradation (UVB, alkaline comet assay). Format: cell-based. As to conditions: UVB 0.4 J/cm^2 30 s, versus intrinsic repair efficiency of the cells. From the text: Testing the Repair Capacity of DNA Degradation
Primary cultures of human fibroblasts (10^5 cells/plate) were irradiated to 0.4 J/cm^2 UVB for 30 seconds. […]

A further test has as its system human keratinocytes. Description: Photoprotection efficiency in cultured human keratinocytes (solar simulation lamp, Neutral Red viability). In kind it is cell-based. As to conditions: 1 mg/ml peptide, viability compared with irradiated and non-irradiated control cells. Here is the method:
Testing the photoprotection efficiency of H-L-Dpr-D-Ala-L-Pro-L-His-OH, H-L-Dpr-D-Ala-L-Ala-L-His-OH and H-L-Dp- L-Ala-L-Pro-L-His-OH in cultured human keratinocytes.
Human keratinocytes were maintained in culture for 24 h on 96 well plates to form monolayers and the cells were pre-incubated in the dark with 1 mg/ml of H-L-Dpr-D-Ala-L-Pro-L-His-OH, H-L-Dpr-D-Ala-L-Ala-L-His-OH, H-L-Dpr-L-Ala-L-Pro-L-His-OH or phosphate buffered saline (control) for one hour at 37° C. and humidified air with 5% CO2. Subsequently, cells were irradiated with a solar simulation lamp (with an energy of 37 J/cm^2 at room temperature for 150 min in the case of H-L-Dpr-D-Ala-L-Pro-L-His-OH). A control plate was kept in the dark during the same time at room temperature. After the period of irradiation, the cell medium was replaced by a fresh medium and the cells were incubated for an additional 24 h.
Cell viability was determined by the Neutral Red dye, measuring the absorbance at 540 nm in a spectrophotometer.
The photoprotection efficiency was determined by comparing the viability obtained in cells treated with H-L-Dpr-D-Ala-L-Pro-L-His-OH, H-L-Dpr-D-Ala-L-Ala-L-His-OH or H-L-Dpr-L-Ala-L-Pro-L-His-OH on the response of irradiated and non-irradiated control cells.

The test system of test [4] is Primary cultures of human melanocytes. Description: Protective capacity against DNA degradation (UVA, alkaline comet assay). As to conditions: 1.0 μg/mL for 2 h at 37° C., then UVA 1.0 J/cm^2, alkaline comet assay. In kind it is cell-based. The method, then:
Test of the Protective Capacity of DNA Degradation
Primary cultures of human melanocytes (10^5 cells/plate) were treated with 1.0 μg/mL of H-L-Dpr-D-Ala-L-Pro-L-His-OH for 2 h at 37° C. Subsequently, the cultures were irradiated with UVA at 1.0 J/cm^2 for no longer than 3min at 4° C. and the extent of the damage induced to DNA was determined by alkaline comet assay [De Meo M., Laget M., Castegnaro M. and Dumenil G. (1991) “Genotoxic activity of potassium permanganate in acidic solutions” Mutat. Res 260:295-306].

A short description of test [5]: Reduction of the odor emitted by aldehyde 2-nonenal (sniff test). To be noted: 0.05% peptide in phosphate buffer 10 mM pH 7-7.5 added to equal volume of 0.00089% 2-nonenal in acetonitrile, odor at time zero and 24 h, panel of 3 experts. The method, then:
Reduction of the Odor Emitted by Aldehyde 2-nonenal
We evaluated the reduction of the odor given off by aldehyde 2-nonenal after the addition of a solution containing 0.05% of H-L-Dpr-L-Ala-L-Ala-L-His-OH through an olfactory test (“sniff test”) conducted by a panel of 3 independent experts.
We prepared a solution of 2-nonenal at 0.00089% in acetonitrile to which was added an equal volume of phosphate buffer 10 mM pH 7-7.5 or H-L-Dpr-L-Ala-L-Ala-L-His-OH to 0.05% in phosphate buffer 10 mM pH 7-7.5. We evaluated the odor intensity given off at time zero and 24 h after creating the mixture of aldehyde and peptide, performing the measurements in a room heated to 24° C. and with controlled humidity at 60% and statistically analyzed the values obtained using the Wilcoxon Matched Paired test.

Where a SMILES comes first, the peptide text is derived from it. [ ]: non-standard residue; d: D form. Dap = NC[C@H](N)C(=O)O

Turning to `NCCC(=O)N[C@@H](Cc1cnc[nH]1)C(=O)O` [Carnosine, carnosine, reference compound], the “Scavenging % of HNE aldehyde” value in test [1] came out at 89.4%. In addition, the “Scavenging % of NE aldehyde” value in test [2] stood at 70.3%.

For `NCCCC[C@H](NC(=O)[C@H](Cc1c[nH]cn1)NC(=O)CN)C(=O)O` [GHK, glycyl-histidyl-lysine, reference compound] (H-Gly-His-Lys-OH), the “Scavenging % of HNE aldehyde” value in test [1] was 82.1%. In addition, in test [2], the “Scavenging % of NE aldehyde” value is 24.7%. With `C[C@@H](NC(=O)[C@@H](N)CN)C(=O)N1CCC[C@H]1C(=O)N[C@@H](Cc1c[nH]cn1)C(=O)O` [H-L-Dpr-D-Ala-L-Pro-L-His-OH] (H-[Dap][dA]PH-OH), the “REPAIR EFFICIENCY of DNA degradation” value in test [3] (then 0.25 μg/mL for 3 h at 37° C.) worked out at 120%; in test [3] (then 0.5 μg/mL for 3 h at 37° C.) it was 170%. Besides, the “Scavenging % of HNE aldehyde” value in test [1] was found to be 98.0%. Further, the “PHOTOPROTECTION EFFICIENCY” value with human keratinocytes is recorded as 92.0%. For the same molecule, the “Scavenging % of NE aldehyde” value in test [2] was determined as 97.0%. The “PROTECTIVE EFFICIENCY against DNA degradation” value in test [4] was 36.1%. Regarding `C[C@H](NC(=O)[C@@H](N)CN)C(=O)N1CCC[C@H]1C(=O)N[C@@H](Cc1c[nH]cn1)C(=O)O` [H-L-Dpr-L-Ala-L-Pro-L-His-OH] (H-[Dap]APH-OH), the “Scavenging % of HNE aldehyde” value in test [1] turned out to be 93.9%. The “PHOTOPROTECTION EFFICIENCY” value with human keratinocytes is 56.8%. In addition, the “Scavenging % of NE aldehyde” value in test [2] is reported as 76.7%. As to H-L-Dpr-D-AIa-L-Asn-L-His-NH2, the “Scavenging % of NE aldehyde” value in test [2] was determined as 98.9%. For the molecule H-L-Dpr-D-Ala-L-Ala-L-His-NH2, in test [1], the “Scavenging % of HNE aldehyde” value is 97.7%. Further, the “Scavenging % of NE aldehyde” value in test [2] is listed as 98.2%.

Take H-L-Dpr-D-Ala-L-Asp-L-His-OH: in test [1], the “Scavenging % of HNE aldehyde” value is 98.8%. For the same molecule, in test [2], the “Scavenging % of NE aldehyde” value came out at 95.4%.

In the case of H-L-Dpr-D-Ala-L-Glu-L-His-NH2, the “Scavenging % of HNE aldehyde” value in test [1] worked out at 97.7%. Also, the “Scavenging % of NE aldehyde” value in test [2] worked out at 95.2%. In the case of H-L-Dpr-D-Ala-L-Glu-L-His-OH, the “Scavenging % of NE aldehyde” value in test [2] is given as 93.2%. H-L-Dpr-D-Ala-L-Pro-L-His-NH2: the “Scavenging % of HNE aldehyde” value in test [1] came out at 98.3%. Moreover, the “Scavenging % of NE aldehyde” value in test [2] was determined as 98.1%. Take H-L-Dpr-L-Ala-D-Asp-L-His-OH: the “Scavenging % of HNE aldehyde” value in test [1] came out at 94.1%. In test [2], the “Scavenging % of NE aldehyde” value is 83.1%. As for H-L-Dpr-L-Ala-L-Ala-L-His-NH2, the “Scavenging % of HNE aldehyde” value in test [1] is given as 96.0%. The “Scavenging % of NE aldehyde” value in test [2] amounted to 94.1%. On to H-L-Dpr-L-Ala-L-Ala-L-His-OH, for which, in test [5], the “reduction of the odor given off by 2-nonenal” value was 15.6%. Besides, the “Scavenging % of NE aldehyde” value in test [2] turned out to be 74.6%. Take H-L-Dpr-L-Ala-L-Asn-L-His-NH2: the “Scavenging % of NE aldehyde” value in test [2] came out at 95.3%. For H-L-Dpr-L-Ala-L-Asn-L-His-OH, in test [2], the “Scavenging % of NE aldehyde” value stood at 73.1%.

In the case of H-L-Dpr-L-Ala-L-Asp-D-His-OH, the “Scavenging % of HNE aldehyde” value in test [1] was 86.3%. Further, the “Scavenging % of NE aldehyde” value in test [2] is reported as 66.5%. As to H-L-Dpr-L-Ala-L-Asp-L-His-NH2, the “Scavenging % of HNE aldehyde” value in test [1] worked out at 97.5%. The “Scavenging % of NE aldehyde” value in test [2] is given as 94.5%. Consider H-L-Dpr-L-Ala-L-Asp-L-His-OH, for which the “Scavenging % of HNE aldehyde” value in test [1] is 97.6%.

As for H-L-Dpr-L-Ala-L-Glu-L-His-NH2, the “Scavenging % of NE aldehyde” value in test [2] was found to be 92.6%. As to H-L-Dpr-L-Ala-L-Glu-L-His-OH, in test [2], the “Scavenging % of NE aldehyde” value is given as 75.6%. Turning to H-L-Dpr-L-Ala-L-Pro-L-His-NH2, the “Scavenging % of HNE aldehyde” value in test [1] worked out at 96.3%. Besides, the “Scavenging % of NE aldehyde” value in test [2] came to 88.7%.

The values above are taken from patent publication US8710010B2, “Peptides useful in the treatment and/or care of skin, mucous membranes, scalp and/or hair and their use in cosmetic or pharmaceutical compositions” (Lipotec, S.A., priority 2008, dated 2014).
